Broadly, the EC50 is the concentration that produces a half-maximal response. As usually defined, the MIC80 is the lowest concentration that inhibits either 80% of growth or 80% of the strains tested, depending on the study. In general, CC50 refers to the concentration giving 50% cytotoxicity. A high value points to lower toxicity to the cells. A word on the IC50: it is the concentration at which inhibition is half-maximal.

In brackets after ≈: the same amount, converted by molar mass. Like-named read-outs stand apart in the source and are kept apart here.

Here are results for five compounds from patent US12606529B2, “Sulfur and amide tropolone inhibitors of nucleotidyl transferases and uses therefor” (Saint Louis University, priority 2019, dated 2026).

Data set [1] has as its system HBV replication. As to the kind of experiment: HBV replication inhibition in HepDES19 cells (strand-preferential qPCR). The following applies: Hepatitis B virus, HepDES19, 72 h, Table 2 amides; HBV replication, HepDES19 cells, plus-polarity DNA, 72 h. Summed up:
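HepDES19 cells without tetracycline were dosed 48 h after induction of HBV replication and exposed for 72 h at 1% DMSO. Lysates were treated with micrococcal nuclease, then protease, to leave nuclease-protected viral DNA, which was measured by strand-preferential qPCR over 40 cycles.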
In general terms: In qPCR the cycle at which signal appears reflects the starting amount.

Data set [2] relates to HSV-1. As to the kind of experiment: Anti-HSV-1 replication assay (Vero cells, plaque titer). Format: cell-based, herpes simplex virus 1. The following applies: for log reduction at 5 µM: compound at 5 μM, read-out: HSV-1 suppression 5 μM; for log reduction at 5 µM / log reduction at 1 µM: values separated by / are repeats; for log reduction at 1 µM: compound at 1 μM, read-out: HSV-1 suppression 1 μM.

Data set [3] relates to C. neoformans var. grubii, KN99. As to the kind of experiment: C. neoformans growth inhibition assay (limiting dilution). In kind it is cell-based, Cryptococcus neoformans. The following applies: Table 2 amides, 48 h, 35° C., tested 0.19 to 50 μM, read-out: C. neoformans MIC80. The gist of the method:
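Starting OD650 0.001 in YNB (0.2% dextrose, 50 mM MOPS, pH 7.0) with 1% DMSO; static incubation 48 h at 35° C, then shaken and read at OD650. Growth expressed as percent of DMSO control; MIC is the lowest concentration giving 80% inhibition, triplicates over at least two independent assays.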

Data set [4] concerns HepDES19 cells. Conditions: Table 2 amides, MTT.
Description: (§1) Cells used for toxicity and HBV studies. […] Cells were maintained in Dulbecco's modified Eagle's medium (DMEM)/F12 media supplemented with 10% fetal bovine serum (FBS) and 1% penicillin/streptomycin (P/S) with 1 μg/mL tetracycline. Synchronized expression of HBV pgRNA was induced by removing tetracycline from the culture medium.
(§2) Cytotoxicity Assays. Qualitative assessments of cytotoxicity were done visually by inspecting the cells in the primary screening assays. […] The next day the compounds were added at 0.78 to 100 μM in a final concentration of 1% (v/v) DMSO, and the cells were incubated for 24 hours under conditions identical to those employed for the viral replication inhibition assays. Mitochondrial toxicity was measured by incubating the cells with 0.25 mg/mL thiazolyl blue tetrazolium bromide (MTT, SigmaAldrich Chemical Co.), the cultures were incubated for 60 mM, metabolites were solubilized in acidic isopropanol, and absorbance was read at 570 nm. CC50 values were calculated by non-linear curve fitting using GraphPad Prism using the three-parameter variable-response log(inhibitor)-versus-response algorithm with the bottom value set to zero.
The nature of data set [5]: in vitro. The following applies: human, HepDES19 cells.
Description: as §1, §2
Data set [6] addresses T1, human RNaseH1 (Homo sapiens, UniProt O60930).
T1 sequence (O60930 1-286): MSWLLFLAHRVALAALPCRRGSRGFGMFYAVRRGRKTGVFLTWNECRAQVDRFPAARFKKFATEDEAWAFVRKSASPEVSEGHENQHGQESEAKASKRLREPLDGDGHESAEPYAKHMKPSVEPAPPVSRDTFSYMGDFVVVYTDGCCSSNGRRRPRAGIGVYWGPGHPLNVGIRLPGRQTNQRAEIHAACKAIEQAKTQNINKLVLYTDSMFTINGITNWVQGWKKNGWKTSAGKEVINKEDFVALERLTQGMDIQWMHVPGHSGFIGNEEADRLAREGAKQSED
As to the kind of experiment: Biochemical inhibition of human RNaseH1 activity. The following applies: Table 2 amides; read-out: HuRH1 IC50. Summed up:
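Human enzyme (0.3 μg) with 100 nM RNA:DNA molecular-beacon substrate, 50 mM HEPES pH 8.0, 100 mM NaCl, 2 mM TCEP, compounds 0 to 500 μM, 5% DMSO; started with 5 mM MgCl2, fluorescence read at 37° C. HBV enzyme (C-terminally truncated MBP-HRHgtCΔ5) run in FRET format, monitored 90 min at 37° C., initial rates calculated.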

The test system of data set [7] is E. coli. As to the kind of experiment: Bacterial growth inhibition (E. coli). In kind it is cell-based. The following applies: Escherichia coli.
Data set [8] addresses HBV RNaseH (MBP-HRHgtCΔ5) (Hepatitis B virus genotype C subtype ayr, UniProt Q69028). As to the kind of experiment: Biochemical inhibition of HBV RNaseH (FRET-based RNaseH assay). More on the design: a genotype C isolate which lacks the C-terminal 35 amino acids of the HBV RNaseH domain that are predicted to be unstructured; made in house. Conditions: HBV RNaseH IC50 (μM), Table 2 amides. As for the experimental part:
Biochemical inhibition of human RNaseH1 activity. Quantitative inhibition of the human RNaseH1 in the biochemical assays was assessed using a molecular beacon assay as described previously (Edwards et al., 2017). Recombinant human RNaseH 1 (0.3 μg) was incubated with 100 nM RNA:DNA substrate, 50 mM HEPES pH 8.0, 100 mM NaCl, 2 mM Tris(2-carboxyethyl)phosphine hydrochloride (TCEP), 0.05% Tween20, 5 units of RNaseOut, test compounds (0 to 500 μM), and 5% DMSO in a 100 μL reaction volume. The substrate was formed by annealing a complementary RNA oligonucleotide to a hairpin DNA oligonucleotide to hold the hairpin DNA oligonucleotide in an open conformation. The DNA oligonucleotide has a 5′ fluorescein reporter and a 3′ black hole quencher. […] Reactions were initiated with 5 mM MgCl2 and fluorescence was read using a Synergy HTS multi-mode plate reader at 37° C. […] Quantitative inhibition of the human RNaseH1 in biochemical assays was assessed using a FRET-based RNaseH assay under conditions previously reported for an RNaseH molecular beacon assay (Edwards et al., 2017). […] Cleavage of the RNA strand released the fluorescein from quenching, increasing fluorescence. Reactions were monitored for 90 min at 37° C. in a plate reader and initial reaction rates were calculated. […]

The mark [9] stands for this setting: Human alphaherpesvirus 1, Vero, Table 2 amides.

Sequence of HBV RNaseH (MBP-HRHgtCΔ5) (Q69028 691-808, stated change not applied): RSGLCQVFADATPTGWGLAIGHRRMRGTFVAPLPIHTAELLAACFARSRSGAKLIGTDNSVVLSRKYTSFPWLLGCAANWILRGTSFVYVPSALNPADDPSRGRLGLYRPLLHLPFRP

`Cc1cc(O)c(=O)c(O)cc1C(=O)N1CCNCC1` [compound 391]: the EC50 in data set [1] was 460 ± 200 nM. In addition, the log reduction at 5 µM in data set [2] (setting [9]) came out at 0.29. The MIC80 in data set [3] is given as 40 µM (≈ 10.6 µg/mL). This compound returned a CC50 in data set [4] of 37.5 ± 4.8 µM. In data set [5] (CC50), this compound came in with a CC50 at 24 h greater than 20 µM.

In the case of `Cc1cc(O)c(=O)c(O)cc1C(=O)N1CCNCC1` [compound 404], the “Reduction of HSV-1 titers / suppression of HSV-1 replication at 5 μM” value in data set [2] (5 μM, plaque forming units (PFU)/ml) was “undetectable”. In addition, the MIC80 in data set [3] came to 9 µM (≈ 2.38 µg/mL). The compound also had a CC50 in data set [4] of 4.5 ± 1.4 µM.

Take `Cc1cc(O)c(=O)c(O)cc1C(=O)NCCc1ccccc1` [compound 710]: the IC50 in data set [6] was determined as 32.3 ± 3.2 µM. For the same compound, in data set [2] (setting [9]), the log reduction at 1 µM is 0.15 and the log reduction at 5 µM was found to be 1.69. Moreover, the MIC80 in data set [3] (Cryptococcus neoformans) is 2.5 µM (≈ 0.748 µg/mL). The compound further displayed an MIC80 in data set [7] of 30 µM (≈ 8.98 µg/mL). Moreover, the midpoint of cytotoxicity in data set [5] (CC50 (μM), Table 2 amides, MTT), the CC50 at 24 h, lay at 4.5 ± 3 µM.

As for `Cc1cc(O)c(=O)c(O)cc1C(=O)NCc1ccc(OC(F)(F)F)cc1` [compound 804], the IC50 in data set [6] stood at 802 ± 397 µM. In data set [2] (Human alphaherpesvirus 1, Vero, Table 2 amides, compound at 0.33 μM, read-out: HSV-1 suppression 0.33 μM), the log reduction at 0.33 µM was found to be 0.191. In addition, in data set [2] (setting [9]), the log reduction at 1 µM amounted to 0.292 and the log reduction at 5 µM came out at 1.75. Further, the MIC80 in data set [3] (Cryptococcus neoformans) was 6.8 µM (≈ 2.51 µg/mL). The midpoint of cytotoxicity in data set [5] (CC50 (μM), Table 2 amides, MTT), the CC50 at 24 h, lay at 30.1 ± 18 µM. The 50% inhibitory concentration (IC50) in data set [8] is 285 ± 226 µM.

With `Cc1cc(O)c(=O)c(O)cc1C(=O)Nc1ccc(OCc2ccccc2)cc1` [compound 837], the half-inhibitory concentration (IC50) was 625 ± 451 µM in data set [6] and 118 ± 88.7 µM in data set [8]. Further, in data set [2] (setting [9]), the log reduction at 5 µM is 4.09. Also, the MIC80 in data set [3] (Cryptococcus neoformans) turned out to be 4.5 µM (≈ 1.7 µg/mL). Besides, it took 8.7 ± 3.4 µM to reach half-maximal cytotoxicity in data set [5] (CC50 (μM), Table 2 amides, MTT) (CC50 at 24 h).
